# Test results from patent US10603345B2, “Pharmaceutical composition for treating respiratory disease” (Kunming Institute of Botany, The Chinese Academy of Sciences, priority 2015, dated 2020).
# Legend:
# Format in all cases: in vivo
# TNF-α in LPS-induced rat = assay: Effect on TNF-α in LPS-induced rat; details: ig 7 d, dose/kg: DXM 1.5 mg, Test group 1 30 mg, 2 15 mg, 3 7.5 mg, x ± S
# Description: (§1) Animal source: 190˜220 g male SD rat, from laboratory animal department of Kunming Medical University, License No. SCXK (Dian) 2011-0004.
# (§2) Method and route: lipopolysaccharide (LPS) was used to induce a rat airway inflammation model; after intragastrical administration for 7 d at a dose of 10 mL/kg, the animal was sacrificed at the eighth day.
# (§3) Sample preparation: all the samples were prepared by using 0.5% carboxymethylcellulose sodium (0.5% CMC-Na).
# Group and dose: in Test group 1 and Test group 2, the ratio of picrinine, vallesamine, scholaricine and 19-epischolaricine by weight was, 45:36:7:10 and 10:18:9:2, respectively, and the other groups and doses thereof were as described in Example 9.
# Test index: TNF-α in bronchoalveolar lavage fluid (BALF), serum, and homogenate was used as index.
# [1] = test system: inflammatory cell in LPS-induced rat; assay: Effect on inflammatory cell and classification in BALF of LPS-induced rat; details: ig 7 d, dose/kg: DXM 1.5 mg, Test group 1 30 mg, 2 15 mg, 3 7.5 mg, x ± S
# Description: as §1, §2, §3
# Group and dose: in Test group 1 and Test group 2, the ratio of picrinine, vallesamine, scholaricine and 19-epischolaricine by weight was 43:16:30:8 and 20:38:30:7, respectively, and the other groups and doses thereof were as described in Example 9.
# Test index: Total number of white blood cells (WBCs) and inflammatory cell classification in bronchoalveolar lavage fluid (BALF) were used as indexes.
# IL-8 in LPS-induced rat = assay: Effect on IL-8 in LPS-induced rat; details: ig 7 d, dose/kg: DXM 1.5 mg, Test group 1 30 mg, 2 15 mg, 3 7.5 mg, x ± S
# Description: as §1, §2, §3
# Group and dose: in Test group 1 and Test group 2, the ratio of picrinine, vallesamine, scholaricine and 19-epischolaricine by weight was 48:10:30:9 and 12:14:15:6, respectively, and the other groups and doses thereof were as described in Example 9.
# Test index: IL-8 in bronchoalveolar lavage fluid (BALF), serum, and homogenate was used as index.
# LDH in LPS-induced rat = assay: Effect on LDH in LPS-induced rat; details: ig 7 d, dose/kg: DXM 1.5 mg, Test group 1 30 mg, 2 15 mg, 3 7.5 mg
# Description: as §1, §2, §3
# Group and dose: in Test group 1 and Test group 2, the ratio of picrinine, vallesamine, scholaricine and 19-epischolaricine by weight was 10:28:15:8 and 10:7:7:2, respectively, and the other groups and doses thereof were as described in Example 9.
# Test index: LDH in bronchoalveolar lavage fluid (BALF), and serum was used as index.
# ALB in LPS-induced rat = assay: Effect on ALB in LPS-induced rat; details: ig 7 d, dose/kg: DXM 1.5 mg, Test group 1 30 mg, 2 15 mg, 3 7.5 mg
# Description: as §1, §2, §3
# Group and dose: in Test group 1 and Test group 2, the ratio of picrinine, vallesamine, scholaricine and 19-epischolaricine by weight was 36:38:7:1 and 16:15:14:5, respectively, and the other groups and doses thereof were as described in Example 9.
# Test index: ALB in bronchoalveolar lavage fluid (BALF), and serum was used as index.
# AKP in LPS-induced rat = assay: Effect on AKP in LPS-induced rat; details: ig 7 d, dose/kg: DXM 1.5 mg, Test group 1 30 mg, 2 15 mg, 3 7.5 mg
# Description: as §1, §2, §3
# Group and dose: in Test group 1 and Test group 2, the ratio of picrinine, vallesamine, scholaricine and 19-epischolaricine by weight was 8:25:30:9 and 12:10:9:2, respectively, and the other groups and doses thereof were as described in Example 9.
# Test index: AKP in bronchoalveolar lavage fluid (BALF), and serum was used as index.
# SOD in LPS-induced rat = assay: Effect on SOD in LPS-induced rat; details: ig 7 d, dose/kg: DXM 1.5 mg, Test group 1 30 mg, 2 15 mg, 3 7.5 mg, x ± S
# Description: as §1, §2, §3
# Group and dose: in Test group 1 and Test group 2, the ratio of picrinine, vallesamine, scholaricine and 19-epischolaricine by weight was 8:45:29:9 and 20:14:12:7, respectively, and the other groups and doses thereof were as described in Example 9.
# Test index: SOD in bronchoalveolar lavage fluid (BALF), serum, and homogenate was used as index.
# NO in LPS-induced rat = assay: Effect on NO in LPS-induced rat; details: ig 7 d, dose/kg: DXM 1.5 mg, Test group 1 30 mg, 2 15 mg, 3 7.5 mg, x ± S
# Description: as §1, §2, §3
# Group and dose: in Test group 1 and Test group 2, the ratio of picrinine, vallesamine, scholaricine and 19-epischolaricine by weight was 40:30:28:2 and 15:18:26:7, respectively, and the other groups and doses thereof were as described in Example 9.
# Test index: NO in bronchoalveolar lavage fluid (BALF), serum, and homogenate was used as index.
# MDA in LPS-induced rat = assay: Effect on MDA in LPS-induced rat; details: ig 7 d, dose/kg: DXM 1.5 mg, Test group 1 30 mg, 2 15 mg, 3 7.5 mg, x ± S
# Description: Group and dose: in Test group 1 and Test group 2, the ratio of picrinine, vallesamine, scholaricine and 19-epischolaricine by weight was 45:6:28:3 and 17:14:9:4, respectively, and the other groups and doses thereof were as described in Example 9.
# Test index: MDA in bronchoalveolar lavage fluid (BALF), serum, and homogenate was used as index.
compound,measurement,setting,value
"C[C@@H]1C[C@H]2[C@@H]3CCC4=CC(=O)C=C[C@]4(C)[C@@]3(F)[C@@H](O)C[C@]2(C)[C@@]1(O)C(=O)CO [DXM, dexamethasone]",TNF-a BALF,TNF-α in LPS-induced rat; BALF,11.28 ± 4.51 pg/mL
same,TNF-a lung tissue,TNF-α in LPS-induced rat; lung tissue homogenate,152.11 ± 37.64 pg/mL
same,TNF-a Serum,TNF-α in LPS-induced rat; serum,5.11 ± 1.67 pg/mL
same,BALF cell classification AM (alveolar macrophage),[1],52.5 ± 7.0 %
same,BALF cell classification L (lymphocyte),[1],9.3 ± 5.0^ %
same,BALF cell classification M (monocyte),[1],28.9 ± 6.20 %
same,BALF cell classification N (neutrophil),[1],8.2 ± 2.9 %
same,WBC,[1],3.35 ± 1.89 × 10^5/ml
same,IL-8 BALF,IL-8 in LPS-induced rat; BALF,24.62 ± 12.42 pg/mL
same,IL-8 lung tissue,IL-8 in LPS-induced rat; lung tissue homogenate,60.62 ± 20.11 pg/mL
same,IL-8 serum,IL-8 in LPS-induced rat; serum,29.62 ± 12.13 pg/mL
same,LDH BALF,LDH in LPS-induced rat; BALF,96.7 ± 25.6 U/L
same,LDH Serum,LDH in LPS-induced rat; serum,386.5 ± 92.7 U/L
same,ALB BALF,ALB in LPS-induced rat; BALF,0.18 ± 0.07 g/L
same,ALB Serum,ALB in LPS-induced rat; serum,19.4 ± 1.4 g/L
same,AKP BALF,AKP in LPS-induced rat; BALF,29.0 ± 5.9 U/L
same,AKP Serum,AKP in LPS-induced rat; serum,116.1 ± 36.0 U/L
same,SOD BALF,SOD in LPS-induced rat; BALF,63.35 ± 13.45 U/mL
same,SOD Lung tissue,SOD in LPS-induced rat; lung tissue homogenate,92.25 ± 8.88 U/mL
same,SOD Serum,SOD in LPS-induced rat; serum,307.6 ± 97.7 U/mL
same,NO BALF,NO in LPS-induced rat; BALF,13.52 ± 4.17 µmol/L
same,NO Lung tissue,NO in LPS-induced rat; lung tissue homogenate,18.35 ± 5.30 µmol/L
same,NO Serum,NO in LPS-induced rat; serum,27.20 ± 7.67 µmol/L
same,MDA lung tissue,MDA in LPS-induced rat; lung tissue homogenate,1.61 ± 0.71 nmol/mL
same,MDA Serum,MDA in LPS-induced rat; serum,4.21 ± 1.49 nmol/mL
